# Measurements taken from US9650348B2, “Triazines with suitable spacers for treatment and/or prevention of HIV infections” (Universiteit Antwerpen, priority 2012, dated 2017).
# Like-named read-outs stand apart in the source and are kept apart here.
# Legend:
# HIV-1 BaL = experiment: TZM-bl antiviral assay, wild type HIV-1 Ba-L; format: cell-based; conditions: Human immunodeficiency virus 1, BAL, read-out: Antiviral activity-wild type viruses EC50 TZM-bI Ba-L
# Procedure: (§1) The JC53-BL cell line, also known as the TZM-bl cell line (NIH AIDS Research and Reference Reagent Program, Germantown, USA), was used for the evaluation of anti-HIV activity. TZM-bl cells were cultured in Dulbecco's […] (DMEM) (Lonza) containing 10% heat-inactivated FBS and 50 μg gentamycin/mL at 37° C. in a humidified 5% CO2, 95% air environment. Twice a week the cells were treated with 0.25% trypsin-1 mM EDTA (Lonza) for 10 minutes. The resulting cell suspension was washed with an equivalent amount of TZM-bl medium and subsequently seeded in a T75 culture flask (Greiner Bio-One, Germany) at 10^6 cells in 20 mL medium.
# (§2) The antiviral activity of the newly designed compounds was measured by pre-incubating ten thousand TZM-bl cells (at 10^5 cells/mL in culture medium supplemented with 30 μg/mL DEAE dextran) in a 96-well plate for 30 minutes at 37° C., 5% CO2 in the presence or absence of serial dilutions of the respective compound. Subsequently, 200 TCID50 of HIV-1 BaL was added to each well and cultures were incubated for 48 hours before quantifying luciferase activity, using a TriStar LB941 luminometer (Berthold Technologies GmbH & Co. KG, Bad Wildbad, Germany). Each condition was evaluated in triplicate wells and in at least two independent experiments. The antiviral activity of the compound was expressed as the percentage of viral inhibition compared to the untreated controls and subsequently plotted against the compound concentration.
# (§3) The target compounds are evaluated for their anti-HIV-1 activity and cytotoxicity. In a primary screen, the anti-HIV activity against the laboratory strain Ba-L and against a primary subtype C isolate was determined in the TZM-bl cell line. Cellular toxicity on TZM-bl cells was evaluated using WST-1. […] In addition, the activity against NNRTI-resistant viruses (V106A, Y181C, L100I+K103N, L100I+E138K+T369I and K101E+K103N+V108VI+V179M+Y181C+E138Q) was tested. Diarylpyrimidines (DAPY) TMC120, TMC125 and TMC278 were used as reference compounds.
# VI829 = experiment: TZM-bl antiviral assay, wild type VI829 (primary subtype C isolate); format: cell-based, HIV-1; conditions: read-out: Antiviral activity-wild type viruses EC50 TZM-bI VI829
# Procedure: as §1, §2, §3
# Ba-L V106A = experiment: Antiviral activity, NNRTI-resistant virus V106A; format: cell-based, HIV-1; conditions: for FC (V106A): Ba-L V106A; for EC50: Human immunodeficiency virus 1, BAL, read-out: Antiviral activity-NNRTI-resistant viruses EC50 Ba-L V106A
# Procedure: as §3
# VI829 Y181C = experiment: Antiviral activity, NNRTI-resistant virus Y181C; format: cell-based, HIV-1; conditions: for EC50: Human immunodeficiency virus 1, read-out: Antiviral activity-NNRTI-resistant viruses EC50 VI829 Y181C; for FC (Y181C): VI829 Y181C
# Procedure: as §3
# VI829 L100I+K103N = experiment: Antiviral activity, NNRTI-resistant virus L100I+K103N; format: cell-based, HIV-1; conditions: for EC50: Human immunodeficiency virus 1, read-out: Antiviral activity-NNRTI-resistant viruses EC50 VI829 L100I+K103N; for FC (L100I+K103N): VI829 L100I+K103N
# Procedure: as §3
# [1] = test system: Ba-L K101E + K103N + V108VI + V179M + Y181C + E138Q; experiment: Antiviral activity, NNRTI-resistant virus K101E+K103N+V108VI+V179M+Y181C+E138Q; format: cell-based, HIV-1; conditions: for FC (*): Ba-L, * = K101E + K103N + V108VI + V179M + Y181C + E138Q; for EC50: Human immunodeficiency virus 1, BAL, read-out: Antiviral activity-NNRTI-resistant viruses EC50 Ba-L *
# Procedure: (§4) The target compounds are evaluated for their anti-HIV-1 activity and cytotoxicity. In a primary screen, the anti-HIV activity against the laboratory strain Ba-L and against a primary subtype C isolate was determined in the TZM-bl cell line. Cellular toxicity on TZM-bl cells was evaluated using WST-1. Based on the primary screening results, the target compound was further evaluated for anti-HIV activity in different primary cells, including peripheral blood mononuclear cells, dendritic cells and CD4+ T lymphocytes. In addition, the activity against NNRTI-resistant viruses (V106A, Y181C, L100I+K103N, L100I+E138K+T369I and K101E+K103N+V108VI+V179M+Y181C+E138Q) was tested. Diarylpyrimidines (DAPY) TMC120, TMC125 and TMC278 were used as reference compounds.
# VI829 L100I+E138K+T369I = experiment: Antiviral activity, NNRTI-resistant virus L100I+E138K+T369I; format: cell-based, HIV-1; conditions: VI829, ** = L1001 + E138K + T3691
# Procedure: as §4
# in vitro = format: cell-based; conditions: human, Cytotoxicity CC50 TZM-bI
# Source text: The Water Soluble Tetrazolium-1 (WST-1) Cell Proliferation Assay is a colorimetric assay for the measurement of cell proliferation and viability. The assay is based on the cleavage of the tetrazolium salt WST-1 (4-[3-(4-iodophenyl)-2-(4-nitrophenyl)-2H-5-tetrazolio]-1,3-benzene disulfonate) to a formazan dye by a complex cellular mechanism. This bioreduction is largely dependent on the glycolytic production of NAD(P)H in viable cells. Therefore, the amount of formazan dye formed correlates directly to the number of viable cells in the culture, and can be quantified by measuring the absorbance at 450 nm in a multiwell plate reader. The greater the number of viable cells, the greater the amount of formazan dye produced following the addition of WST-1. Cytotoxicity of each compound was evaluated using this WST-1 viability assay, according to the manufacturer's instructions (Roche, Vilvoorde, Belgium).
# Briefly, ten thousand TZM-bl cells were seeded in a 96-well plate and cultured for 2 days in the presence of a serial dilution of compound. After this 48 h exposure, Cell Proliferation Reagent, WST-1, was added and absorbance at 450 nm was quantified after 90 min using a microplate reader (BioRad, Tokio, Japan). Each compound was tested in three replicate wells and in at least two independent experiments.
# as §3
# HIV-1 Ba-L [2] = experiment: Antiviral activity in peripheral blood mononuclear cells (PBMC), Ba-L; format: cell-based; conditions: Human immunodeficiency virus 1, BAL, Ba-L wild type, read-out: Antiviral activity-wild type viruses EC50 PBMC Ba-L
# HIV-1 Ba-L [3] = experiment: Antiviral activity in dendritic cells / CD4+ T lymphocytes (DC/T4), Ba-L; format: cell-based; conditions: Human immunodeficiency virus 1, BAL; DC/T4, Ba-L wild type; read-out: Antiviral activity-wild type viruses EC50 DC/T4 Ba-L
# [4] = Human immunodeficiency virus 1, TZM-bl cells, VI829 wild type
SMILES,"EC50 (HIV-1 BaL; TZM-bl cells, Ba-L wild type) [nM]",EC50 (VI829; [4]) [nM],FC (V106A) (Ba-L V106A),EC50 (Ba-L V106A) [nM],EC50 (VI829 Y181C) [nM],FC (Y181C) (VI829 Y181C),EC50 (VI829 L100I+K103N) [nM],FC (L100I+K103N) (VI829 L100I+K103N),FC (*) [1],EC50 [1] [nM],FC (**) (VI829 L100I+E138K+T369I),CC50 at 48 h (in vitro) [nM],EC50 (HIV-1 BaL; TZM-bl) [nM],"EC50 (VI829; Human immunodeficiency virus 1, TZM-bl) [nM]",EC50 (HIV-1 Ba-L [2]) [nM],EC50 (HIV-1 Ba-L [3]) [nM]
"Cc1cc(C=CC#N)cc(C)c1Oc1nc(N)nc(Nc2ccc(C#N)cc2)n1 [T11, 4-((4-amino-6-(4-(2-cyanovinyl)-2,6-dimethylphenoxy)-1,3,5-triazin-2-yl)amino)benzonitrile]",1.1,0.64,2,2.5,4.1,6,17,27,56,62,167,19100,,,,
"Cc1cc(C#N)cc(C)c1Oc1nc(Nc2ccc(C#N)cc2)nc(N)c1Br [TMC125, Etravirine, reference compound]",,,1,1.6,7.6,5,14,9,51,76,62,,1.5,1.5,5.9,1.8
"Cc1cc(C=CC#N)cc(C)c1Nc1nc(Nc2ccc(C#N)cc2)nc(N(C)C)n1 [T5, 4-((4-((4-(2-cyanovinyl)-2,6-dimethylphenyl)amino)-6-(dimethylamino)-1,3,5-triazin-2-yl)amino)benzonitrile]",5.8,4.4,2,12,27,6,74,17,78,455,31,8060,,,,
"N#CC=Cc1cc(F)c(Nc2nc(N)nc(Nc3ccc(C#N)cc3)n2)c(F)c1 [T10, 4-((4-amino-6-((4-(2-cyanovinyl)-2,6-difluorophenyl)amino)-1,3,5-triazin-2-yl)amino)benzonitrile]",0.53,,,,,,,,1113,590,,21400,,,,
"Cc1cc(C=CC#N)cc(C)c1Nc1nc(Nc2ccc(C#N)cc2)nc(N2CCN(C)CC2)n1 [T9, 4-((4-((4-(2-cyanovinyl)-2,6-dimethylphenyl)amino)-6-(4-methylpiperazin-1-yl)-1,3,5-triazin-2-yl)amino)benzonitrile]",8.5,,,,,,,,37,316,,21200,,,,
"Cc1cc(/C=C\C#N)cc(C)c1Nc1nc(N)nc(Nc2ccc(C#N)cc2)n1 [T3, (Z)-4-(4-amino-6-(4-(2-cyanovinyl)-2,6-dimethylphenylamino)-1,3,5-triazin-2-ylamino)benzonitrile]",1.1,1.1,5,5.2,12,11,123,112,214,236,1266,30800,,,6.1,0.31
"Cc1cc(C=CC#N)cc(C)c1Oc1nc(Nc2ccc(C#N)cc2)nc(N(C)C)n1 [T13, 4-((4-(4-(2-cyanovinyl)-2,6-dimethylphenoxy)-6-(dimethylamino)-1,3,5-triazin-2-yl)amino)benzonitrile]",3.4,,,,,,,,231,786,,7850,,,,
"Cc1cc(C=CC#N)cc(C)c1Nc1nc(Nc2ccc(C#N)cc2)nc(N2CCCCC2)n1 [T7, 4-((4-((4-(2-cyanovinyl)-2,6-dimethylphenyl)amino)-6-(piperidin-1-yl)-1,3,5-triazin-2-yl)amino)benzonitrile]",18,19,7,126,221,12,> 1000,>50,>55,> 1000,>50,> 100000,,,,
"CNc1nc(Nc2ccc(C#N)cc2)nc(Oc2c(C)cc(C=CC#N)cc2C)n1 [T12, 4-((4-(4-(2-cyanovinyl)-2,6-dimethylphenoxy)-6-(methylamino)-1,3,5-triazin-2-yl)amino)benzonitrile]",1.6,1.6,4,6.5,7.4,5,24,15,48,77,44,20000,,,,
"Cc1cc(C=CC#N)cc(C)c1Nc1nc(Nc2ccc(C#N)cc2)nc(N2CCOCC2)n1 [T8, 4-((4-((4-(2-cyanovinyl)-2,6-dimethylphenyl)amino)-6-morpholino-1,3,5-triazin-2-yl)amino)benzonitrile]",7.1,,,,,,,,89,634,,11400,,,,
"Cc1cc(C=CC#N)cc(C)c1Oc1nc(Nc2ccc(C#N)cc2)nc(N2CCCCC2)n1 [T14, 4-((4-(4-(2-cyanovinyl)-2,6-dimethylphenoxy)-6-(piperidin-1-yl)-1,3,5-triazin-2-yl)amino)benzonitrile]",21,,,,,,,,>47,> 1000,,> 100000,,,,
"CNc1nc(Nc2ccc(C#N)cc2)nc(Nc2c(C)cc(C=CC#N)cc2C)n1 [T4, 4-((4-((4-(2-cyanovinyl)-2,6-dimethylphenyl)amino)-6-(methylamino)-1,3,5-triazin-2-yl)amino)benzonitrile]",1.7,,,,,,,,39,66,,5910,,,,
